According to patent US20020103398A1, “2-Amino-2-alky-4 heptenoic and heptynoic acid derivatives useful as nitric oxide synthase inhibitors” (priority 2000, published 2002):
Structures can show the parent of a compound that is named as a salt.

Assays:
Type in all cases: biochemical
[1] = target: T1, Human inducible NOS (hiNOS) (Homo sapiens, UniProt P35228); assay: Citrulline assay for nitric oxide synthase (hiNOS); settings: recombinant enzyme from Sf9 cells; 30 μM L-arginine; 37° C., 15 minutes
T1 construct: made in house; host or cells: Sf9 insect cells, baculovirus vector
Description: (§1) Nitric oxide synthase (NOS) activity can be measured by monitoring the conversion of L-[2,3-^3H]-arginine to L-[2,3-^3H]-citrulline (Bredt and Snyder, Proc. Natl. Acad. Sci. U.S.A., 87, 682-685, 1990 and Moore et al, J. Med. Chem. 39, 669-672, 1996). Human inducible NOS (hiNOS), human endothelial constitutive NOS (hecNOS) and human neuronal constitutive NOS (hncNOS) are each cloned from RNA extracted from human tissue. The cDNA for human inducible NOS (hiNOS) is isolated from a λcDNA library made from RNA extracted from a colon sample from a patient with ulcerative colitis. The cDNA for human endothelial constitutive NOS (hecNOS) is isolated from a λcDNA library made from RNA extracted from human umbilical vein endothelial cells (HUVEC) and the cDNA for human neuronal constitutive NOS (hncNOS) is isolated from a λcDNA library made from RNA extracted from human cerebellum obtained from a cadaver. […] After mixing the resin is allowed to settle and L-[2,3-^3H]-Citrulline formation is determined by counting aliquots of the supernatant with a liquid scintillation counter. IC50 values can be determined by testing each compound at several concentrations. […]

[2] = target: T2, human neuronal constitutive NOS (hncNOS) (Homo sapiens, UniProt P29475); assay: Citrulline assay for nitric oxide synthase (hncNOS); settings: recombinant enzyme from Sf9 cells; 30 μM L-arginine; calmodulin 40-100 nM; 37° C., 15 minutes
T2 construct: made in house; host or cells: Sf9 insect cells, baculovirus vector
Description: as §1

[3] = target: T3, human endothelial constitutive NOS (hecNOS) (Homo sapiens, UniProt P29474); assay: Citrulline assay for nitric oxide synthase (hecNOS); settings: recombinant enzyme from Sf9 cells; 30 μM L-arginine; calmodulin 40-100 nM; 37° C., 15 minutes
T3 construct: made in house; host or cells: Sf9 insect cells, baculovirus vector
Description: as §1

T2 sequence (P29475 whole entry): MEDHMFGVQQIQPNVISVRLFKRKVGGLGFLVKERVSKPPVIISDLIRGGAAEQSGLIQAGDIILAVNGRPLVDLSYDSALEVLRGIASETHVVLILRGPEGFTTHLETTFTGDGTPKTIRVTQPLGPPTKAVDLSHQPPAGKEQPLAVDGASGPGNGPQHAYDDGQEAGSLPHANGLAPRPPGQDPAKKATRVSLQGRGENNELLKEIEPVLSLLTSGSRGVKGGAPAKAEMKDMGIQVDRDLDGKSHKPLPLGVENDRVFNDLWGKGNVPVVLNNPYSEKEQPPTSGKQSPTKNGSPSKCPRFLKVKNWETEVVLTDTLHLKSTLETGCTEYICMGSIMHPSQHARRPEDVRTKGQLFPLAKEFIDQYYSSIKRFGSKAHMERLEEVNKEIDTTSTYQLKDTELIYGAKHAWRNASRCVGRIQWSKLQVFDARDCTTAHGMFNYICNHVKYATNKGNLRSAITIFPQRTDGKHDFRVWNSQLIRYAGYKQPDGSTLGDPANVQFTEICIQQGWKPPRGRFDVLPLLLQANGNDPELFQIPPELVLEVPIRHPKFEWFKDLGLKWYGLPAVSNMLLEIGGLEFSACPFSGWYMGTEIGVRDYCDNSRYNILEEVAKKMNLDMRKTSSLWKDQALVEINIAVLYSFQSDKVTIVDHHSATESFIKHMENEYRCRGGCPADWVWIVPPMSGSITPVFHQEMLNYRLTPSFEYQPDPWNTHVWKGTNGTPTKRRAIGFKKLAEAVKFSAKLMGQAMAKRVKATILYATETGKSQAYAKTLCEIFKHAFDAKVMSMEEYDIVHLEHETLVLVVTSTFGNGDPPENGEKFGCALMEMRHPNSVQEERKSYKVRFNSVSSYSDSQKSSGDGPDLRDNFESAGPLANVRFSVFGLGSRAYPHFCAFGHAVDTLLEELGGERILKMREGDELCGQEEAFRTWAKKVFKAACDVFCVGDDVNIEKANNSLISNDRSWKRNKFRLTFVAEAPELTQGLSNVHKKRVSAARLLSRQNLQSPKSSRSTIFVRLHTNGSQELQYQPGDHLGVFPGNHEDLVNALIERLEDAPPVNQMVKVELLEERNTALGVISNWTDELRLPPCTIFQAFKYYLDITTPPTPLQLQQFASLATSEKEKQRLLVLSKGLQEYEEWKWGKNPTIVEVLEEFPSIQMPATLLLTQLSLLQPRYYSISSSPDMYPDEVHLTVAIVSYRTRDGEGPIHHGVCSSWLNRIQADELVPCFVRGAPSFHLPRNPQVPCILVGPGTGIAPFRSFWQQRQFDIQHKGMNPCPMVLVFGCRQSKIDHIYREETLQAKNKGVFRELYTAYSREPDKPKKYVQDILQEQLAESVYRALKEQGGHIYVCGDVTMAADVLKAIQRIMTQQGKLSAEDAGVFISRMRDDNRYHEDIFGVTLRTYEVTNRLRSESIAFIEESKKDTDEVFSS
T3 sequence (P29474 2-1203): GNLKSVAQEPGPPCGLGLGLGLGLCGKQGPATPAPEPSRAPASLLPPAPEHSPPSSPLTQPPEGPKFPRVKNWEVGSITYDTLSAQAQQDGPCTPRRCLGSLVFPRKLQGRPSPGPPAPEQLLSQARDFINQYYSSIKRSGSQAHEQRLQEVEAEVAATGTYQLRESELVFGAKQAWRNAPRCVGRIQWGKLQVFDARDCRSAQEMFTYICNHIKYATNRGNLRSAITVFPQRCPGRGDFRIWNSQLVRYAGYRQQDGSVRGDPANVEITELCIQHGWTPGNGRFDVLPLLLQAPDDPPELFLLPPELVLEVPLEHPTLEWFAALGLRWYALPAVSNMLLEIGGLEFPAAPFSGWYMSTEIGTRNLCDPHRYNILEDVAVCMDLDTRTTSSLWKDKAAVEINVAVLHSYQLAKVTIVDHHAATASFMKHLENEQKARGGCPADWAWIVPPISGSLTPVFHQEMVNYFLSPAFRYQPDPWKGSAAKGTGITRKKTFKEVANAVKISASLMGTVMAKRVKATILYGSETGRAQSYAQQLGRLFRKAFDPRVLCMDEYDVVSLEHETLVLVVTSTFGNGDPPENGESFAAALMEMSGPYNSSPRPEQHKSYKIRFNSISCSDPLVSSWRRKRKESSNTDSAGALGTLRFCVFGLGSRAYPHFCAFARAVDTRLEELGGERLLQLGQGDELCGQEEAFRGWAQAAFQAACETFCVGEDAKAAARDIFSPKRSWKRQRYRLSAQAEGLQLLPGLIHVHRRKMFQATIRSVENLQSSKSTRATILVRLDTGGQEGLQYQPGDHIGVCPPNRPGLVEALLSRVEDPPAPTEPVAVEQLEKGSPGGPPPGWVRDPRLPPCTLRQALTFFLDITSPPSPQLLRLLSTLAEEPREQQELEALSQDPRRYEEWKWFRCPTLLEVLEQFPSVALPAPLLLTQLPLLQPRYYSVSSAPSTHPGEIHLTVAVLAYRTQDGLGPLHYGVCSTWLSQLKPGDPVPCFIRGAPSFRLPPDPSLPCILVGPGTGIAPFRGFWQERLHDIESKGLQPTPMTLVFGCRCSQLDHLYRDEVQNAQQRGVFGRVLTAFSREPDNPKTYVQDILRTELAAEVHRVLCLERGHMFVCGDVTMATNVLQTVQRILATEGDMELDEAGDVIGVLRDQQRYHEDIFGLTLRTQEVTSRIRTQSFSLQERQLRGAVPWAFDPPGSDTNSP
T1 sequence (P35228 whole entry): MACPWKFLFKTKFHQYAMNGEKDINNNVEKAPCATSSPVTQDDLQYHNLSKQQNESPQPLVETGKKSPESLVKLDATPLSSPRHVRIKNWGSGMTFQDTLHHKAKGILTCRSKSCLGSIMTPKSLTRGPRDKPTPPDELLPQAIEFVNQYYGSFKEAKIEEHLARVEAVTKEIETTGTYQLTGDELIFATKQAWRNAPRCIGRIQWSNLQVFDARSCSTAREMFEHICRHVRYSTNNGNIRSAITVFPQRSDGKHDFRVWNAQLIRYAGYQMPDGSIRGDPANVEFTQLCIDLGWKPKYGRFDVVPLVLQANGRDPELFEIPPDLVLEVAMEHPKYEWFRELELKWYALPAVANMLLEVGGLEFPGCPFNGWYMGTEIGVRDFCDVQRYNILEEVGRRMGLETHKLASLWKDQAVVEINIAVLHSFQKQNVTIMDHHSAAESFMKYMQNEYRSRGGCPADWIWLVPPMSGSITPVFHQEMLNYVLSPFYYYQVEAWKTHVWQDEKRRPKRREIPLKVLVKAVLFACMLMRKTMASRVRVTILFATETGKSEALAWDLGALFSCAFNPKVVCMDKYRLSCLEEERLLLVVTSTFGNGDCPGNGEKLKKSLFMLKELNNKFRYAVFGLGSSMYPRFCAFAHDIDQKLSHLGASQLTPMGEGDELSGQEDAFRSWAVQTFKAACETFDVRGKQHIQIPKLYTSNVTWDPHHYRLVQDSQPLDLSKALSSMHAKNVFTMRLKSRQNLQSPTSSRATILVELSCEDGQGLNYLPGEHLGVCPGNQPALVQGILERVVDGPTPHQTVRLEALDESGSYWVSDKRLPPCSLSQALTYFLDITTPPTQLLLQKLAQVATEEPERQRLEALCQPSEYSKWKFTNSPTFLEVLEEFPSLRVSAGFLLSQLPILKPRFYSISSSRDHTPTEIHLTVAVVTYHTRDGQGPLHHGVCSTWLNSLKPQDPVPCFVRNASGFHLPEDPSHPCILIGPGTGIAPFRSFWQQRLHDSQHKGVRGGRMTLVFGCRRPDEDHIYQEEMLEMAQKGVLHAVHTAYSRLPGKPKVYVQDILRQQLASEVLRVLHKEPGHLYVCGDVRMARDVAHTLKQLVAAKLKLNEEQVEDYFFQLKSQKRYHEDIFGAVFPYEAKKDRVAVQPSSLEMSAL

CC(=N)NCC/C=C\CC(C)(N)C(=O)O (racemic) [Example 1, (2R/S,4Z)-2-amino-2-methyl-7-[(1-iminoethyl)amino]-4-heptenoic Acid, Dihydrochloride]
IC50 [1]: 34 µM
IC50 [2]: 122 µM
IC50 [3]: 386 µM
